This assay concerns the target T1, human β3 adrenergic receptor (Homo sapiens, UniProt P13945).
T1 construct: expressed in transfected cells; host or cells: Chinese hamster ovary (CHO) cells, stably transfected
Description: Beta-3 agonist in vitro functional assay: cAMP production (LANCE TR-FRET) in CHO cells stably transfected with the cloned β3 receptor. The format is cell-based. The settings on record: read-out: Human β3 agonist functional activity. A digest of the protocol: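 CHO cells stably expressing the cloned receptor, in HEPES-buffered HBSS with BSA and 0.6 mM IBMX, 6,000 cells/well, exposed to compound for 30 min at RT. cAMP read by LANCE TR-FRET against a cAMP standard curve. Isoproterenol defines maximal stimulation.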
(In general: cAMP levels reflect the balance of adenylyl cyclase and phosphodiesterase activity.)

[1] abbreviates: Table 9, Beta-3 agonist in vitro functional assay.
[2] abbreviates: Table 12, human β3 functional activity given as ranges.
[3] abbreviates: Table 10, Beta-3 agonist in vitro functional assay.
Setting [4] is: Table 8, Beta-3 agonist in vitro functional assay.

Where two headings read alike, the source gives them in different places.

T1 sequence (P13945 whole entry): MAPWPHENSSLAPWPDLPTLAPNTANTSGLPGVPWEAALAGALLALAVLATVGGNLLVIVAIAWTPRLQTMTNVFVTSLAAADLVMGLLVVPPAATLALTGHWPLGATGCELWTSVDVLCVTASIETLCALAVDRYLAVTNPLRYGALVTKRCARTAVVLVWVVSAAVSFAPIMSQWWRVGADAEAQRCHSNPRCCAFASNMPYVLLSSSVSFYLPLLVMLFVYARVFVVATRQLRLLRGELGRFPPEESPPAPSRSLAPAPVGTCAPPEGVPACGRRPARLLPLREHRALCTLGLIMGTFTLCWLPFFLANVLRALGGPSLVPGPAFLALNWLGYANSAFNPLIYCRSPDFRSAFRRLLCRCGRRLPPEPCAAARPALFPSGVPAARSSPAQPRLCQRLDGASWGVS

Turning to `COC(=O)c1ccccc1N1CCN(C(=O)c2ccc(C[C@@H]3CC[C@H]([C@H](O)c4ccccc4)N3)cc2)CC1` [Example 351], under setting [1], the EC50 lay in the range of 10 to 99.9 nM.

For `CC(c1ncccn1)N1CCN(C(=O)c2ccc(CC3CCC(C(O)c4ccccc4)N3)cc2)CC1` (single isomer, unassigned) [Example 595], the EC50 under setting [2] is 10 to 99.9 nM.

Consider `CC(C(=O)NCC1(O)CC1)N1CCN(C(=O)c2ccc(C[C@@H]3CC[C@H]([C@H](O)c4ccccc4)N3)cc2)CC1` (stereo partly drawn) [Example 449], for which the EC50 under setting [3] lay within 10 to 99.9 nM.

Regarding `CC(c1cocn1)N1CCN(C(=O)c2ccc(CC3CCC(C(O)c4ccccc4)N3)cc2)CC1` (single isomer, unassigned) [Example 586], the EC50 under setting [2] lay within 10 to 99.9 nM.

As for `CC(c1ncco1)N1CCN(C(=O)c2ccc(CC3CCC(C(O)c4ccccc4)N3)cc2)CC1` (single isomer, unassigned) [Example 584], under setting [2], the EC50 is 10 to 99.9 nM.

Regarding `CC(C(=O)N(C1CC1)C1CC1)N1CCN(C(=O)c2ccc(C[C@@H]3CC[C@H]([C@H](O)c4ccccc4)N3)cc2)CC1` (stereo partly drawn) [Example 522], the EC50 under setting [3] is 10 to 99.9 nM.

With `COc1ccc(C2(CNC(=O)C(C)(C)C)CCN(C(=O)c3ccc(C[C@@H]4CC[C@H]([C@H](O)c5cccnc5)N4)cc3)CC2)cc1` [Example 247], the EC50 under setting [4] was 100 to 999 nM.

Turning to `O=C(c1ccc(CC2CCC(C(O)c3ccccc3)N2)cc1)N1CCN(C2CCN(C3CC3)C2=O)CC1` (single isomer, unassigned) [Example 607], the EC50 under setting [2] was 100 to 999 nM.

As for `CC(C(=O)N1CCc2ccncc2C1)N1CCN(C(=O)c2ccc(C[C@@H]3CC[C@H]([C@H](O)c4ccccc4)N3)cc2)CC1` (stereo partly drawn) [Example 506], the EC50 under setting [3] was in the range of 10 to 99.9 nM.

As to `CC(c1ccccc1F)N1CCN(C(=O)c2ccc(CC3CCC(C(O)c4ccccc4)N3)cc2)CC1` (single isomer, unassigned) [Example 573], the EC50 under setting [2] was 1 to 9.9 nM.

As to `CC(C(=O)N1CCc2ncccc2C1)N1CCN(C(=O)c2ccc(C[C@@H]3CC[C@H]([C@H](O)c4ccccc4)N3)cc2)CC1` (stereo partly drawn) [Example 507], under setting [3], the EC50 was 10 to 99.9 nM.

Regarding `COc1ccccc1CN1CCN(C(=O)c2ccc(C[C@@H]3CC[C@H]([C@H](O)c4ccccc4)N3)cc2)CC1` [Example 409], the EC50 under setting [1] lay within 10 to 99.9 nM.

Consider `O=C(c1ccc(C[C@@H]2CC[C@H]([C@H](O)c3ccccc3)N2)cc1)N1Cc2cocc2C1` [Example 26], for which the EC50 (Table 4, cAMP, CHO cells) was in the range of 10 to 99.9 nM.

Regarding `O=C(c1ccc(C[C@@H]2CC[C@H]([C@H](O)c3ccccc3)N2)cc1)N1CCN(Cc2nc3ccccc3s2)CC1` [Example 404], the EC50 under setting [1] was 10 to 99.9 nM.

As for `CNC(=O)C(C)N1CCN(C(=O)c2ccc(C[C@@H]3CC[C@H]([C@H](O)c4ccccc4)N3)cc2)CC1` (stereo partly drawn) [Example 435], the EC50 under setting [3] fell in the range of 10 to 99.9 nM.

As for `O=C1OC2(CCN(C(=O)c3ccc(C[C@@H]4CC[C@H]([C@H](O)c5ccccc5)N4)cc3)CC2)CC1Cc1ccc(F)cc1` (stereo partly drawn) [Example 276], the EC50 under setting [4] fell in the range of 1 to 9.9 nM.

Turning to `O=C(c1ccc(C[C@@H]2CC[C@H]([C@H](O)c3ccccc3)N2)cc1)N1CCN(c2ncccc2F)CC1` [Example 357], the EC50 under setting [1] is 100 to 999 nM.

Consider `Cn1ncc2c1CN(C(=O)c1ccc(C[C@@H]3CC[C@H]([C@H](O)c4ccccc4)N3)cc1)C2` [Example 28], for which the EC50 (Table 4, cAMP, CHO cells) was 100 to 999 nM.

Take `CC(C(=O)NC1CCS(=O)(=O)CC1)N1CCN(C(=O)c2ccc(C[C@@H]3CC[C@H]([C@H](O)c4ccccc4)N3)cc2)CC1` (stereo partly drawn) [Example 469]: under setting [3], the EC50 fell in the range of 10 to 99.9 nM.

Regarding `CCOC(=O)C1CCN(C(=O)c2ccc(C[C@@H]3CC[C@H]([C@H](O)c4ccccc4)N3)cc2)CC1` [Example 118], for the setting “Table 5, cAMP, CHO cells”, the EC50 was 10 to 99.9 nM.

For the molecule `O=C(c1ccc(C[C@@H]2CC[C@H]([C@H](O)c3ccccc3)N2)cc1)N1CCN(Cc2ccn[nH]2)CC1` [Example 395], under setting [1], the EC50 fell in the range of 10 to 99.9 nM.

As for `CN(C)C(=O)CN1CCN(C(=O)c2ccc(C[C@@H]3CC[C@H]([C@H](O)c4ccccc4)N3)cc2)CC1` [Example 389], the EC50 under setting [1] was in the range of 100 to 999 nM.

For the molecule `O=C(c1ccc(C[C@@H]2CC[C@H]([C@H](O)c3ccccc3)N2)cc1)N1CCN(c2ccc[nH]c2=O)CC1` [Example 387], the EC50 under setting [1] lay within 10 to 99.9 nM.

With `CC(C(=O)N1Cc2cncnc2C1)N1CCN(C(=O)c2ccc(C[C@@H]3CC[C@H]([C@H](O)c4ccccc4)N3)cc2)CC1` (stereo partly drawn) [Example 483], the EC50 under setting [3] was in the range of 100 to 999 nM.

Turning to `O=C(c1ccc(C[C@@H]2CC[C@H]([C@H](O)c3cccnc3)N2)cc1)N1CCCC1c1ccccc1F` (stereo partly drawn) [Example 16], the EC50 (Table 4, cAMP, CHO cells) was in the range of 100 to 999 nM.

Take `O=C(O)COc1cccnc1N1CCN(C(=O)c2ccc(C[C@@H]3CC[C@H]([C@H](O)c4ccccc4)N3)cc2)CC1` [Example 367]: the EC50 under setting [1] fell in the range of 100 to 999 nM.

As to `CC(C)COc1ccc2c(c1)C(=O)CC1(CCN(C(=O)c3ccc(C[C@@H]4CC[C@H]([C@H](O)c5ccccc5)N4)cc3)CC1)O2` [Example 324], the EC50 under setting [4] fell in the range of 10 to 99.9 nM.

On to `CCC1CC2(CCN(C(=O)c3ccc(CC4CCC(C(O)c5ccccc5)N4)cc3)CC2)C(=O)O1` (single isomer, unassigned) [Example 564], for which the EC50 under setting [2] fell in the range of 1 to 9.9 nM.

For the molecule `CC(C(=O)N1CCCCC12CC2)N1CCN(C(=O)c2ccc(C[C@@H]3CC[C@H]([C@H](O)c4ccccc4)N3)cc2)CC1` (stereo partly drawn) [Example 493], the EC50 under setting [3] was 10 to 99.9 nM.

On to `O=C(c1ccc(C[C@@H]2CC[C@H]([C@H](O)c3ccccc3)N2)cc1)N1CCCC2(CCCNC2=O)C1` (stereo partly drawn) [Example 39], for which the EC50 (Table 4, cAMP, CHO cells) was in the range of 100 to 999 nM.

As to `O=C(O)C1C2CN(C(=O)c3ccc(CC4CCC(C(O)c5ccccc5)N4)cc3)CC21` (stereo not drawn) [Example 231], the EC50 (Table 7, cAMP, CHO cells, ranges as given for Tables 6 and 7) is 100 to 999 nM.

For `O=C(c1ccc(C[C@@H]2CC[C@H]([C@H](O)c3ccccc3)N2)cc1)N1Cc2c[nH]nc2C1` [Example 27], the EC50 (Table 4, cAMP, CHO cells) was 10 to 99.9 nM.

`O=C(c1ccc(CC2CCC(C(O)c3ccccc3)N2)cc1)N1CCN(C2CCN(C3CC3)C2=O)CC1` (single isomer, unassigned) [Example 608]: the EC50 under setting [2] is 10 to 99.9 nM.

Consider `C[C@H]1CN(C(=O)c2ccc(C[C@@H]3CC[C@H]([C@H](O)c4ccccc4)N3)cc2)CCN1Cc1nc2ccccc2o1` [Example 531], for which the EC50 (Table 11, cAMP, CHO cells) was 10 to 99.9 nM.

As for `CC1(C)CC2(CCN(C(=O)c3ccc(C[C@@H]4CC[C@H]([C@H](O)c5ccccc5)N4)cc3)CC2)CO1` [Example 312], the EC50 under setting [4] fell in the range of 100 to 999 nM.

For the molecule `O=C(c1ccc(C[C@@H]2CC[C@H]([C@H](O)c3ccccc3)N2)cc1)N1CCC2(CC1)OCC[S+]2[O-]` (stereo partly drawn) [Example 304], the EC50 under setting [4] fell in the range of 100 to 999 nM.

In the case of `CC(c1cscn1)N1CCN(C(=O)c2ccc(C[C@@H]3CC[C@H]([C@H](O)c4ccccc4)N3)cc2)CC1` (single isomer, unassigned) [Example 580], the EC50 under setting [2] is 10 to 99.9 nM.

Turning to `O=C(c1ccc(C[C@@H]2CC[C@H]([C@H](O)c3cccnc3)N2)cc1)N1CCC(c2cccc(F)n2)CC1` [Example 113], for the setting “Table 5, cAMP, CHO cells”, the EC50 was in the range of 10 to 99.9 nM.

As for `Cc1ccc(CC2(O)CCN(C(=O)c3ccc(C[C@@H]4CC[C@H]([C@H](O)c5ccccc5)N4)cc3)CC2)cc1` [Example 246], the EC50 under setting [4] was in the range of 10 to 99.9 nM.

For `CC(c1cocn1)N1CCN(C(=O)c2ccc(CC3CCC(C(O)c4ccccc4)N3)cc2)CC1` (single isomer, unassigned) [Example 585], under setting [2], the EC50 is 10 to 99.9 nM.

`O=C(c1ccc(C[C@@H]2CC[C@H]([C@H](O)c3ccccc3)N2)cc1)N1CCC(N2C(=O)NC3CCCCC32)CC1` (stereo partly drawn) [Example 76]: the EC50 (Table 5, cAMP, CHO cells) is 10 to 99.9 nM.

As to `CC(C)CN(C)C(=O)C(C)N1CCN(C(=O)c2ccc(C[C@@H]3CC[C@H]([C@H](O)c4ccccc4)N3)cc2)CC1` (stereo partly drawn) [Example 518], under setting [3], the EC50 lay in the range of 100 to 999 nM.

In the case of `O=C(c1ccc(C[C@@H]2CC[C@H]([C@H](O)c3cccnc3)N2)cc1)N1CCC(n2cc(-c3ccccc3)[nH]c2=O)CC1` [Example 85], under “Table 5, cAMP, CHO cells”, the EC50 was in the range of 10 to 99.9 nM.

In the case of `CC(C)C1CC2(CCN(C(=O)c3ccc(CC4CCC(C(O)c5ccccc5)N4)cc3)CC2)C(=O)O1` (single isomer, unassigned) [Example 567], under setting [2], the EC50 lay within 1 to 9.9 nM.

As for `NC(=O)C1(F)CN(C(=O)c2ccc(C[C@@H]3CC[C@H]([C@H](O)c4ccccc4)N3)cc2)C1` [Example 4], under “Table 4, cAMP, CHO cells”, the EC50 was in the range of 100 to 999 nM.

As to `O=C(c1ccc(C[C@@H]2CC[C@H]([C@H](O)c3ccccc3)N2)cc1)N1CCC(n2cnnn2)CC1` [Example 100], the EC50 (Table 5, cAMP, CHO cells) fell in the range of 10 to 99.9 nM.

On to `CC(C(=O)NCC(C)(C)O)N1CCN(C(=O)c2ccc(C[C@@H]3CC[C@H]([C@H](O)c4ccccc4)N3)cc2)CC1` (stereo partly drawn) [Example 443], for which the EC50 under setting [3] fell in the range of 10 to 99.9 nM.

`CC(C)[C@@H](C)NC(=O)C(C)N1CCN(C(=O)c2ccc(C[C@@H]3CC[C@H]([C@H](O)c4ccccc4)N3)cc2)CC1` (stereo partly drawn) [Example 441]: the EC50 under setting [3] was in the range of 10 to 99.9 nM.

Regarding `O=C(c1ccc(C[C@@H]2CC[C@H]([C@H](O)c3ccccc3)N2)cc1)N1CCC2(CC1)Nc1ccccc1S(=O)(=O)N2` [Example 334], the EC50 under setting [4] fell in the range of 1 to 9.9 nM.

Regarding `O=C(c1ccc(C[C@@H]2CC[C@H]([C@H](O)c3ccccc3)N2)cc1)N1CCC2(CCCC2O)CC1` (stereo partly drawn) [Example 314], under setting [4], the EC50 was in the range of 100 to 999 nM.

As to `CC(C(=O)N1CCC[C@H]1C(N)=O)N1CCN(C(=O)c2ccc(C[C@@H]3CC[C@H]([C@H](O)c4ccccc4)N3)cc2)CC1` (stereo partly drawn) [Example 478], the EC50 under setting [3] is 100 to 999 nM.

Regarding `CC(C)C(c1ccccn1)N1CCN(C(=O)c2ccc(C[C@@H]3CC[C@H]([C@H](O)c4ccccc4)N3)cc2)CC1` (stereo partly drawn) [Example 419], under setting [1], the EC50 is 10 to 99.9 nM.

On to `CC(c1ccccn1)C1CCN(C(=O)c2ccc(C[C@@H]3CC[C@H]([C@H](O)c4ccccc4)N3)cc2)CC1` (stereo partly drawn) [Example 164], for which the EC50 (Table 5, cAMP, CHO cells) lay in the range of 10 to 99.9 nM.

On to `O=C1CC(c2ccccc2)C2(CCN(C(=O)c3ccc(CC4CCC(C(O)c5cccnc5)N4)cc3)CC2)O1` (single isomer, unassigned) [Example 559], for which the EC50 under setting [2] lay in the range of 100 to 999 nM.

These data come from patent US8354403B2, “Pyrrolidine derived beta 3 adrenergic receptor agonists” (Merck Sharp & Dohme Corp., priority 2009, dated 2013).
